“And” between values parts separate entries of the source, which are not always exact repeats. Identical values can stand only once. Toxic doses and inconclusive results are not listed.
System: L1210 leukemia ip in BDF1 mice, survival T/C
Assay: NCI In Vivo Anticancer Drug Screen. Data for tumor model L1210 Leukemia (intraperitoneal) in B6D2F1 (BDF1) mice
Conditions: endpoint: mean survival time, higher = longer survival
How it was run: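 In this screen, tumor-bearing mice given compound are compared to those given vehicle, and their survival values are reported as a treated-to-control quotient.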

[1] = dose: 50.0 mg/kg/injection, schedule: Q01DX001 (ip), vehicle: carboxymethylcellulose (CMC)
[2] = dose: 100.0 mg/kg/injection, schedule: Q01DX001 (ip), vehicle: carboxymethylcellulose (CMC)
[3] = dose: 200.0 mg/kg/injection, schedule: Q01DX001 (ip), vehicle: carboxymethylcellulose (CMC)
[4] = dose: 200.0 mg/kg/injection, schedule: Q01DX009 (ip), vehicle: saline
[5] = dose: 400.0 mg/kg/injection, schedule: Q01DX001 (ip), vehicle: carboxymethylcellulose (CMC)
[6] = dose: 50.0 mg/kg/injection, schedule: Q01DX001 (ip), vehicle: saline
[7] = dose: 100.0 mg/kg/injection, schedule: Q01DX001 (ip), vehicle: saline
[8] = dose: 200.0 mg/kg/injection, schedule: Q01DX001 (ip), vehicle: saline
[9] = dose: 100.0 mg/kg/injection, schedule: Q04DX003 (ip), vehicle: Klucel (hydroxypropylcellulose) (HPC)
[10] = dose: 400.0 mg/kg/injection, schedule: Q01DX001 (ip), vehicle: saline

COC(=O)C1=C(C(=O)OC)C(C(=O)OC)N2C=CC=CC2=C1C(=O)OC (stereo not drawn)
T/C [1]: 94 % of control | T/C [2]: 89 % of control | T/C [3]: 94 % of control

CC1CCC2(C)CCC3(C)C4=CCC5C(C)(C)C(O)CCC5(C)C4CCC3(C)C2C1C (stereo not drawn)
T/C [4]: 87 % of control | T/C (dose: 400.0 mg/kg/injection, schedule: Q01DX009 (ip), vehicle: saline): 96 % of control

O=C(Nc1cccc(O)c1)Oc1ccccc1
T/C (dose: 100.0 mg/kg/injection, schedule: Q01DX009 (ip), vehicle: saline with Tween-80): 98 % of control | T/C (dose: 200.0 mg/kg/injection, schedule: Q01DX009 (ip), vehicle: saline with Tween-80): 90 % of control | T/C (dose: 400.0 mg/kg/injection, schedule: Q01DX009 (ip), vehicle: saline with Tween-80): 89 % of control

CC1=CC(=N\S(=O)(=O)c2ccccc2)/c2ccccc2/C1=N/S(=O)(=O)c1ccccc1
T/C (dose: 25.0 mg/kg/injection, schedule: Q01DX001 (ip), vehicle: saline sonified): 92 % of control | T/C (dose: 50.0 mg/kg/injection, schedule: Q01DX001 (ip), vehicle: saline sonified): 95 % of control | T/C (dose: 100.0 mg/kg/injection, schedule: Q01DX001 (ip), vehicle: saline sonified): 95 % of control

CC12CC3CC1C2C3OC=O (stereo not drawn)
T/C [1]: 90 % of control | T/C [2]: 95 % of control | T/C [3]: 95 % of control | T/C [5]: 101 % of control

CC(C)(CN=Cc1cccc(O)c1)N=Cc1cccc(O)c1
T/C (dose: 75.0 mg/kg/injection, schedule: Q01DX009 (ip), vehicle: DMSO): 95 % of control | T/C (dose: 100.0 mg/kg/injection, schedule: Q01DX001 (ip), vehicle: DMSO): 100 % of control | T/C (dose: 100.0 mg/kg/injection, schedule: Q04DX003 (ip), vehicle: DMSO): 89 % of control | T/C (dose: 150.0 mg/kg/injection, schedule: Q01DX009 (ip), vehicle: DMSO): 93 % of control | T/C (dose: 200.0 mg/kg/injection, schedule: Q01DX001 (ip), vehicle: DMSO): 96 % of control | T/C (dose: 200.0 mg/kg/injection, schedule: Q04DX003 (ip), vehicle: DMSO): 88 % of control | T/C (dose: 400.0 mg/kg/injection, schedule: Q01DX001 (ip), vehicle: DMSO): 100 % of control | T/C (dose: 400.0 mg/kg/injection, schedule: Q04DX003 (ip), vehicle: DMSO): 89 % of control

CC(=O)OCC1OC(n2cnc3c(=S)nc(N)[nH]c32)C(OC(C)=O)C1OC(C)=O (stereo not drawn)
T/C (dose: 1.6 mg/kg/injection, schedule: Q01DX Z (ip), vehicle: carboxymethylcellulose (CMC)): 106 % of control | T/C (dose: 5.0 mg/kg/injection, schedule: Q01DX Z (ip), vehicle: carboxymethylcellulose (CMC)): 162 % of control | T/C (dose: 6.25 mg/kg/injection, schedule: Q01DX Z (oral), vehicle: other): 94 % of control | T/C (dose: 7.5 mg/kg/injection, schedule: Q01DX Z (ip), vehicle: carboxymethylcellulose (CMC)): 162 % of control | T/C (dose: 11.2 mg/kg/injection, schedule: Q01DX Z (ip), vehicle: carboxymethylcellulose (CMC)): 176 % of control | T/C (dose: 12.5 mg/kg/injection, schedule: Q01DX Z (oral), vehicle: other): 106 % of control | T/C (dose: 25.0 mg/kg/injection, schedule: Q01DX Z (oral), vehicle: other): 105 % of control | T/C (dose: 44.0 mg/kg/injection, schedule: Q01DX Z (ip), vehicle: carboxymethylcellulose (CMC)): 86 % of control | T/C [6]: 100 % of control | T/C (dose: 50.0 mg/kg/injection, schedule: Q01DX Z (oral), vehicle: other): 122 % of control | T/C [7]: 123 % of control | T/C (dose: 150.0 mg/kg/injection, schedule: Q01DX015 (oral), vehicle: other): 120 % of control | T/C [8]: 103 % of control | T/C (dose: 200.0 mg/kg/injection, schedule: Q01DX015 (oral), vehicle: other): 97 % of control | T/C (dose: 250.0 mg/kg/injection, schedule: Q01DX015 (oral), vehicle: other): 94 % of control

CC(=O)Nc1ccc(S(=O)(=O)SC(Cl)(Cl)Cl)cc1
T/C (dose: 100.0 mg/kg/injection, schedule: Q01DX009 (ip), vehicle: gum acacia): 99 % of control | T/C (dose: 200.0 mg/kg/injection, schedule: Q01DX009 (ip), vehicle: gum acacia): 94 % of control | T/C (dose: 400.0 mg/kg/injection, schedule: Q01DX009 (ip), vehicle: gum acacia): 99 % of control

N#Cc1c(N)[n+]([O-])c2c([n+]1[O-])CCCC2
T/C (dose: 100.0 mg/kg/injection, schedule: Q04DX002 (ip), vehicle: Klucel (hydroxypropylcellulose) (HPC)): 101 % of control | T/C (dose: 200.0 mg/kg/injection, schedule: Q04DX002 (ip), vehicle: Klucel (hydroxypropylcellulose) (HPC)): 104 % of control | T/C (dose: 400.0 mg/kg/injection, schedule: Q04DX002 (ip), vehicle: Klucel (hydroxypropylcellulose) (HPC)): 87 % of control

O=c1onc(-c2ccccc2)c2ccccc12
T/C (dose: 12.5 mg/kg/injection, schedule: Q04DX002 (ip), vehicle: saline with Tween-80): 106 % of control | T/C (dose: 25.0 mg/kg/injection, schedule: Q04DX002 (ip), vehicle: saline with Tween-80): 106 % of control | T/C (dose: 50.0 mg/kg/injection, schedule: Q04DX002 (ip), vehicle: saline with Tween-80): 103 % of control

CN1C2CCCCC1C1CCCCC2N1C
T/C (dose: 75.0 mg/kg/injection, schedule: Q01DX001 (ip), vehicle: saline): 105 % of control | T/C (dose: 150.0 mg/kg/injection, schedule: Q01DX001 (ip), vehicle: saline): 94 % of control | T/C (dose: 300.0 mg/kg/injection, schedule: Q01DX001 (ip), vehicle: saline): 98 % of control

FC(F)(F)C(Cl)(c1ccc(Cl)cc1)c1ccc(Cl)cc1
T/C (dose: 100.0 mg/kg/injection, schedule: Q04DX003 (sc), vehicle: olive oil, sesame oil, peanut oil): 102 % of control | T/C (dose: 400.0 mg/kg/injection, schedule: Q04DX003 (sc), vehicle: olive oil, sesame oil, peanut oil): 100 % of control

OC(c1ccccc1)c1nnc(C(O)c2ccccc2)nn1 (stereo not drawn)
T/C (dose: 100.0 mg/kg/injection, schedule: Q01DX001 (ip), vehicle: Klucel (hydroxypropylcellulose) (HPC)): 92 % of control | T/C [9]: 94 % of control | T/C (dose: 200.0 mg/kg/injection, schedule: Q01DX001 (ip), vehicle: Klucel (hydroxypropylcellulose) (HPC)): 95 % of control | T/C (dose: 200.0 mg/kg/injection, schedule: Q04DX003 (ip), vehicle: Klucel (hydroxypropylcellulose) (HPC)): 93 % of control | T/C (dose: 400.0 mg/kg/injection, schedule: Q01DX001 (ip), vehicle: Klucel (hydroxypropylcellulose) (HPC)): 95 % of control | T/C (dose: 400.0 mg/kg/injection, schedule: Q04DX003 (ip), vehicle: Klucel (hydroxypropylcellulose) (HPC)): 100 % of control

O=C(Cl)c1cccc2c([N+](=O)[O-])cccc12
T/C (dose: 22.0 mg/kg/injection, schedule: Q01DX001 (ip), vehicle: other): 96 % of control and 100 % of control | T/C (dose: 33.0 mg/kg/injection, schedule: Q01DX001 (ip), vehicle: other): 103 % of control and 105 % of control | T/C (dose: 75.0 mg/kg/injection, schedule: Q01DX001 (ip), vehicle: other): 103 % of control and 107 % of control | T/C (dose: 100.0 mg/kg/injection, schedule: Q01DX001 (ip), vehicle: other): 97 % of control | T/C (dose: 200.0 mg/kg/injection, schedule: Q01DX001 (ip), vehicle: other): 101 % of control | T/C (dose: 400.0 mg/kg/injection, schedule: Q01DX001 (ip), vehicle: other): 106 % of control

O=C(O)Cc1ccc(Cl)c(Cl)c1
T/C (dose: 50.0 mg/kg/injection, schedule: Q01DX009 (ip), vehicle: saline): 94 % of control | T/C (dose: 100.0 mg/kg/injection, schedule: Q01DX009 (ip), vehicle: saline): 105 % of control | T/C [4]: 108 % of control

Cn1c(=O)c2[nH]c(C3CC4C5CCC(C5)C4C3)nc2n(C)c1=O (stereo not drawn)
T/C [6]: 100 % of control | T/C [7]: 108 % of control | T/C [8]: 100 % of control | T/C [10]: 96 % of control

O=C(NC(CSC(c1ccc(Cl)cc1)c1ccc(Cl)cc1)C(=O)O)OCc1ccccc1 (stereo not drawn)
T/C (dose: 25.0 mg/kg/injection, schedule: Q04DX003 (ip), vehicle: Klucel (hydroxypropylcellulose) (HPC)): 102 % of control | T/C (dose: 50.0 mg/kg/injection, schedule: Q04DX003 (ip), vehicle: Klucel (hydroxypropylcellulose) (HPC)): 91 % of control | T/C [9]: 97 % of control

OC(C(c1ccccc1)N1CCOCC1)C(O)(c1ccccc1)c1ccccc1 (stereo not drawn)
T/C [7]: 106 % of control | T/C [8]: 94 % of control | T/C [10]: 97 % of control

Cc1ccccc1/C=N/Nc1nnc(N/N=C/c2ccccc2C)c2ccccc12
T/C [2]: 91 % of control | T/C [3]: 109 % of control | T/C [5]: 95 % of control

Cc1cc(Cl)cc(C(=O)Cl)c1O
T/C (dose: 100.0 mg/kg/injection, schedule: Q04DX002 (ip), vehicle: saline with Tween-80): 111 % of control | T/C (dose: 200.0 mg/kg/injection, schedule: Q04DX002 (ip), vehicle: saline with Tween-80): 107 % of control | T/C (dose: 400.0 mg/kg/injection, schedule: Q04DX002 (ip), vehicle: saline with Tween-80): 103 % of control
